Measurements as given in US12139492B2 (Endotarget Inc., priority 2021, dated 2024).
pIC50: −log10 of the molar value. Read-outs that look alike come from different tables or passages of the source.

Columns and labels:
Mino cells = assay: Antiproliferative effect, MTS cell viability assay, Mino cells; assay type: cell-based; details: Homo sapiens, Mino mantle cell lymphoma cells, read-out: IC50 (anti-proliferation) Mino cells
Outline: (§1)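 Cells were exposed to compound at 0, 0.001, 0.01, 0.1, 1 and 10 μM for 72 h. Viability was then measured by MTS assay, reading formazan produced by metabolically active cells as absorbance at 490 nm.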

JeKo-1 cells = assay: Antiproliferative effect, MTS cell viability assay, JeKo-1 cells; assay type: cell-based; details: Homo sapiens; JeKo-1 mantle cell lymphoma cells; read-out: IC50 (anti-proliferation) JeKO-1 cells
Outline: as §1

[1] = tested on: primary human CLL cell CTG-3763; assay: Ex vivo cell inhibition, Cell Titer Glo viability, primary CLL cell CTG-3763; assay type: cell-based; details: 10 nM to 50 μM, 6 days
Method: (§2) Primary human Human Chronic Lymphocytic Leukemia cell lines were used to measure ex vivo cell inhibition by exemplary compounds. The cells were incubated with test compounds at a dose range of 10 nM to 50 μM for 6 days. Cell Titer Glo data were gathered for cell viability evaluation.

[2] = tested on: primary human CLL cell CTG-3754; assay: Ex vivo cell inhibition, Cell Titer Glo viability, primary CLL cell CTG-3754; assay type: cell-based; details: 10 nM to 50 μM, 6 days
Method: as §2

BTK [3] = target: T1, BTK (Homo sapiens, UniProt Q06187); assay: BTK degradation, DC50 and Dmax of Table 1 (cell line not given); assay type: cell-based; set-up: endogenous in cells; details: for DC50: concentration giving 50% reduction of BTK expression level
T1 sequence (Q06187 whole entry): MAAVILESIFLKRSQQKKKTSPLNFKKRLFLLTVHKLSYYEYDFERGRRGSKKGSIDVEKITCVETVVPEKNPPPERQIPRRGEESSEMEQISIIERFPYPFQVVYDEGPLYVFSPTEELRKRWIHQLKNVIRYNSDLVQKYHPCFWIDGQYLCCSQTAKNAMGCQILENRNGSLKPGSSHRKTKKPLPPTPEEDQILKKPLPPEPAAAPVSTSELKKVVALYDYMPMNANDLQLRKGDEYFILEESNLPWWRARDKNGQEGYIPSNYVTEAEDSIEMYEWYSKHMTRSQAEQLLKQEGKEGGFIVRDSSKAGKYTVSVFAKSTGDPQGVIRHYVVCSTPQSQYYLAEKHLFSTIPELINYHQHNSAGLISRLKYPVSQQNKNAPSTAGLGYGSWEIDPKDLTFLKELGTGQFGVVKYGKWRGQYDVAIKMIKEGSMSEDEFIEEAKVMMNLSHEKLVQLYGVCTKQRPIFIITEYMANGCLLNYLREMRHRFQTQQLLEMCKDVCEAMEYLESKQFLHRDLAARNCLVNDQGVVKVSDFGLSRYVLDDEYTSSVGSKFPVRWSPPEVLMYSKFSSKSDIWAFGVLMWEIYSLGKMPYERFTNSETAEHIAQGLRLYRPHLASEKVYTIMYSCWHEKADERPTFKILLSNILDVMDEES

BTK [4] = target: T1, BTK; assay: Degradation of BTK protein in Namalwa cells (Western blot; DC50, Dmax); details: Namalwa B lymphocyte cells, Western blot; for degradation of BTK protein: various concentrations, 24 hours
Method: (§5) Namalwa, JeKo-1, or Mino cells were plated in 24-well plates at a density of 10^5 cells/well. Media containing various drug concentrations were added on the day following plating (day 0) and allowed to incubate for 24 hours for Western blot. Media with the tested compound was changed every other day. […] Media were removed and dishes were washed with 1×DPBS. Lysates were made by adding 150 μL of complete lysis solution and scraping cells into a 1.5 mL microcentrifuge tube. Lysates were placed on a rotisserie at 4° C. for 30 min and then spun at 4° C. at 12000 rcf for 10 min. Supernatants were assayed for protein content, snap-frozen, and stored a −80° C. if not run immediately. Then 50 μg of protein was subjected to Western blot protocol. […] They were then imaged on a LICOR infrared scanner.

MOLT-4 cell = assay: Cell apoptosis by flow cytometry, MOLT-4 cells; assay type: cell-based; details: 1 and 10 μM, 72 hours, in vitro
Method: (§3) Cell apoptosis induced by treatment of exemplary compounds was measured by flow cytometry.
(§4) Flow cytometry analysis was performed after staining of the cells with PI and 7-AAD. For PI staining, 0.5×10^6 cells/mL were centrifuged at 1500 rpm for 5 min, supernatant was removed, and cell pellet was gently suspended with 1 ml Krishan buffer and then incubated at 4° C. in the dark for 60 min. Apoptosis was determined by Cytomic's FC500 Flow Cytometer (Beckman Coulter) and the data were analyzed by Win Cycle Multicycle Software (De Novo Software). For the 7-AAD staining, 0.5×10^6 cells were washed with PBS and centrifuged at 1500 rpm for 5 min. Supernatant was removed and the cell pellet was suspended in 100 μL PBS. 10 μL 7-AAD was added to each tube and incubated for 20 min at room temperature in the dark. 7-AAD labeled-cells were analyzed by Cytomic's FC500 Flow Cytometry (Beckman Coulter) and FCS Express Flow Cytometry Data Analysis software (DeNovo Software). For morphologic analysis of apoptosis by light microscopy, cells were incubated with Mock or with […] for 72 h. Control or drug treated-cells were cytospun on glass slides, stained with Wright-Giemsa, and then examined by light microscopy. Morphological changes associated with apoptosis included cellular shrinkage, nuclear condensation, nuclear fragmentation, and formation of apoptotic bodies. […]

Namalwa cell = assay: Cell apoptosis by flow cytometry, Namalwa cells; assay type: cell-based; details: 1 and 10 μM, 72 hours, in vitro
Method: as §3, §4

JeKo-1 cell = assay: Cell apoptosis by flow cytometry, JeKo-1 cells; assay type: cell-based; details: 0.1, 1, and 10 μM, 72 hours, in vitro
Method: as §3, §4

Mino cell = assay: Cell apoptosis by flow cytometry, Mino cells; assay type: cell-based; details: 1 and 10 μM, 72 hours, in vitro
Method: as §3, §4

Jeko-1 xenograft tumor = assay: In vivo tumor inhibition efficacy, JeKo-1 xenograft in NOD/SCID mice; details: 20 mg/kg daily oral gavage for 3 weeks
Method: JeKo-1 cells were obtained from American Type Culture Collection (ATCC, Manassas, VA). cells were maintained in RPMI 1640 (Life Technologies, Grand Island, NY) supplemented with 10% heat-inactivated fetal bovine serum (56° C. for 30 minutes), penicillin (10,000 units/mL; Sigma, St Louis, Mo), streptomycin (10 mg/mL; Sigma), gentamicin (50 mg/mL; Life Technologies), amphotericin B (25 mg/mL; Sigma), and L-glutamine (200 mM, 29.2 mg/mL; Life Technologies). culture, as previously described (29, 30). JeKo-1 cells (10 million) were subcutaneously implanted into the flank of NOD/SCID mice. When the average tumor volume reached approximately 300 mm^3, the following treatments were administered in cohorts of 5 mice for each treatment: vehicle alone, 20 mg/kg ibrutinib, 20 mg/kg Compound 2, and 20 mg/kg Compound 161 was administered daily via oral gavage for 3 weeks. Tumor growth was monitored every other day by calipers and tumor volume was calculated using the equation: (½(length×width^2)).

BTK [5] = target: T1, BTK; assay: Degradation of BTK protein in JeKo-1 cells (Western blot; DC50, Dmax); details: JeKo-1 mantle cell lymphoma cells, various concentrations, 24 hours
Method: as §5

BTK [6] = target: T1, BTK; assay: Degradation of BTK protein in Mino cells (Western blot; DC50, Dmax); details: Mino mantle cell lymphoma cells, various concentrations, 24 hours
Method: as §5

| Structure (SMILES) | pIC50 (Mino cells; MINO) | pIC50 (JeKo-1 cells) | effect on primary human CLL cell viability [1] | effect on primary human CLL cell viability [2] | Dmax (BTK [3]) | DC50 (BTK [3]) | degradation of BTK protein (BTK [4]) | induction of cell apoptosis (MOLT-4 cell) | induction of cell apoptosis (Namalwa cell) | induction of cell apoptosis (JeKo-1 cell) | induction of cell apoptosis (Mino cell) | efficacy in inhibiting xenograft tumor growth (Jeko-1 xenograft tumor) | degradation of BTK protein (BTK [5]) | degradation of BTK protein (BTK [6]) | degradation of BTK protein at 10^−6 M (BTK [4]) | pIC50 (Mino cells) |
| --- | --- | --- | --- | --- | --- | --- | --- | --- | --- | --- | --- | --- | --- | --- | --- | --- |
| Nc1ncnc2c1c(-c1ccc(Oc3ccccc3)cc1)nn2C1CCN(CCOCCOCCN2CCN(c3ccc4c(c3)C(=O)N(C3CCC(=O)NC3=O)C4=O)CC2)CC1 (centres unmarked) [Compound 1] | 5.00 to 6.00 | 5.00 to 6.00 | dose-dependent effect | dose-dependent effect | > 90% | 0.01 to 0.05 µM | dose-dependent degradation | – | – | – | – | – | – | – | – | – |
| Nc1ncnc2c1c(-c1ccc(Oc3ccccc3)cc1)nn2C1CCN(CCOCCOCCN2CCN(c3ccc4c(c3)CN(C3CCC(=O)NC3=O)C4=O)CC2)CC1 (centres unmarked) [Compound 2, 3-(5-(4-(2-(2-(2-(4-(4-amino-3-(4-phenoxyphenyl)-1H-pyrazolo(3,4-d)pyrimidin-1-yl)piperidin-1-yl)ethoxy)ethoxy)ethyl)piperazin-1-yl)-1-oxoisoindolin-2-yl)piperidine-2,6-dione] | > 6.00 | > 6.00 | dose-dependent effect | dose-dependent effect | > 90% | < 0.01 µM | dose-dependent degradation | induction of MOLT-4 cell apoptosis | induction of Namalwa cell apoptosis | induction of JeKo-1 cell apoptosis | induction of Mino cell apoptosis | inhibiting Jeko-1 xenograft tumor growth | dose-dependent degradation | – | – | – |
| Nc1ncnc2c1c(-c1ccc(Oc3ccccc3)cc1)nn2[C@@H]1CCCN(CC2CCN(C(=O)N3CCC(N4CCN(c5ccc6c(c5)C(=O)N(C5CCC(=O)NC5=O)C6=O)CC4)CC3)CC2)C1 (stereo partly drawn) [Compound 27, 5-(4-(1-(4-(((R)-3-(4-amino-3-(4-phenoxyphenyl)-1H-pyrazolo(3,4-d)pyrimidin-1-yl)piperidin-1-yl)methyl)piperidine-1-carbonyl)piperidin-4-yl)piperazin-1-yl)-2-(2,6-dioxopiperidin-3-yl)isoindoline-1,3-dione] | 5.00 to 6.00 | > 6.00 | – | – | > 90% | < 0.01 µM | dose-dependent degradation | – | – | – | – | – | dose-dependent degradation | dose-dependent degradation | degradation | – |
| Nc1ncnc2c1c(-c1ccc(Oc3ccccc3)cc1)nn2[C@@H]1CCCN(CC2CCN(C(=O)N3CCC(N4CCN(c5ccc6c(c5)CN(C5CCC(=O)NC5=O)C6=O)CC4)CC3)CC2)C1 (stereo partly drawn) [Compound 28, 3-(5-(4-(1-(4-(((R)-3-(4-amino-3-(4-phenoxyphenyl)-1H-pyrazolo(3,4-d)pyrimidin-1-yl)piperidin-1-yl)methyl)piperidine-1-carbonyl)piperidin-4-yl)piperazin-1-yl)-1-oxoisoindolin-2-yl)piperidine-2,6-dione] | – | 5.00 to 6.00 | – | – | > 90% | 0.01 to 0.05 µM | dose-dependent degradation | – | – | – | – | – | dose-dependent degradation | dose-dependent degradation | – | > 6.00 |
| Nc1ncnc2c1c(-c1ccc(Oc3ccccc3)cc1)nn2[C@@H]1CCCN(C(=O)N2CCC(N3CCN(c4ccc5c(c4)CN(C4CCC(=O)NC4=O)C5=O)CC3)CC2)C1 (stereo partly drawn) [Compound 52, 3-(5-(4-(1-((R)-3-(4-amino-3-(4-phenoxyphenyl)-1H-pyrazolo(3,4-d)pyrimidin-1-yl)piperidine-1-carbonyl)piperidin-4-yl)piperazin-1-yl)-1-oxoisoindolin-2-yl)piperidine-2,6-dione] | > 6.00 | > 6.00 | – | – | > 90% | < 0.01 µM | dose-dependent degradation | – | – | – | – | – | dose-dependent degradation | dose-dependent degradation | – | – |
| Nc1ncnc2c1c(-c1ccc(Oc3ccccc3)cc1)nn2[C@@H]1CCCN(C2CCN(C(=O)N3CCC(N4CCN(c5ccc6c(c5)C(=O)N(C5CCC(=O)NC5=O)C6=O)CC4)CC3)CC2)C1 (stereo partly drawn) [Compound 161, 5-(4-(1-((R)-3-(4-amino-3-(4-phenoxyphenyl)-1H-pyrazolo(3,4-d)pyrimidin-1-yl)-(1,4′-bipiperidine)-1′-carbonyl)piperidin-4-yl)piperazin-1-yl)-2-(2,6-dioxopiperidin-3-yl)isoindoline-1,3-dione] | > 6.00 | > 6.00 | – | – | > 90% | 0.01 to 0.05 µM | dose-dependent degradation | – | – | – | – | inhibiting Jeko-1 xenograft tumor growth | – | – | degradation | – |
| Nc1ncnc2c1c(-c1ccc(Oc3ccccc3)cc1)nn2[C@@H]1CCCN(C2CCN(C(=O)N3CCC(N4CCN(c5ccc6c(c5)CN(C5CCC(=O)NC5=O)C6=O)CC4)CC3)CC2)C1 (stereo partly drawn) [Compound 162, 3-(5-(4-(1-((R)-3-(4-amino-3-(4-phenoxyphenyl)-1H-pyrazolo(3,4-d)pyrimidin-1-yl)-(1,4′-bipiperidine)-1′-carbonyl)piperidin-4-yl)piperazin-1-yl)-1-oxoisoindolin-2-yl)piperidine-2,6-dione] | – | > 6.00 | – | – | > 90% | < 0.01 µM | dose-dependent degradation | – | – | – | – | – | dose-dependent degradation | dose-dependent degradation | – | > 6.00 |
